We go through ten compounds from patent US5703130A, “Chalcone retinoids and methods of use of same” (priority 1996, dated 1997).

In one data set the test system is cancer cells. Briefly: MTT assay for inhibitory effect on cancer cells (monolayer culture). Format: cell-based. The following applies: 120 h, 5 day culture, 1200 tumor cells per well, cell line not named, read-out: MTT ED50. The protocol:
For a monolayer culture to test for the inhibitory effect of chalcone retinoids on cancer cells, 0.5 ml of trypsin solution (0.3 gm/ml) was added to the flasks for digestion. Microtiter plates (96 well) were used for the cell culture and 200 μl of cell suspension (1200 tumor cells) were placed in each well and incubated at 37° C. for 24 hours. Following the addition of the test compound, the control and treated flasks were placed in a CO2 incubator for 5 day culture. For the MTT assay, 200 μl of MTT solution (5 mg in 10 ml of phosphate buffer) plus the medium were added and incubated for another 4 hours. Following incubation, the supernatant was discarded and 200 μl of DMSO was added to each well. With a mild agitation the OD values were determined by the MR 700 Elisa at 570 nm (reference wavelength was 450 nm). The ED50 of the compound and tumor cell survival rate [formula] as percent inhibition were calculated.
On the technique in general: Formazan colour is commonly taken as a measure of viable cells.

In data set [1] the test system is Human promyelocytic leukemia HL-60 cells. Briefly: Cell differentiation of HL-60 cells by nitroblue tetrazolium (NBT) reduction. The format is cell-based. The note with it: 50% differentiation or effective concentration, read-out: NBT ED50. On the procedure:
Human promyelocytic leukemia HL-60 cells were cultured in RPMI-1640 medium supplemented by 10% heat-inactivated calf serum and 100 U/ml of penicillin plus 100 μg/ml of streptomycin. The flasks containing cells and medium were incubated in an incubator with 5% CO2 at 37° C. Log phase cells were seeded into the medium at a concentration of 1.2×10^5to 1.4×10^5 cells per ml and cultured in flasks containing 5 ml of medium. Each group consisted of three flasks. Different concentrations of chalcone-retinoids were added. At intervals following the addition of chalcone-retinoids to the cultures, a small portion of cells was removed and live cells were counted under a light microscope using a dye-exclusionmethod with trypan blue. Cell differentiation was judged in terms of morphology and nitroblue tetrazolium (NBT) reduction.
For a determination of NBT reducing activity, a portion of the chalcone-retinoid-treated cells was removed at intervals following treatment and centrifuged. After centrifugation, 0.5 ml of 0.1% NBT (containing 100 ng TPA) was added to each tube. The contents of the test tubes were then incubated for 1 hour at 37° C. Cell smears were prepared from the cell sediment and stained using the Wright-Giemsa technique. For each smear prepared, 200 cells were isolated for examination under a light microscope with an oil immersion lens. Cells stained with blue-black granules were considered NBT-positive cells. The 50% differentiation or effective concentration (ED50 or EC50) is shown in terms of molar (M) concentration of the […] tested.

Data set [2] concerns human acute myeloid leukemia (AML), neuroblastoma, teratocarcinoma, melanoma, and rat rhabdomyosarcoma cells. The following applies: Smith et al., J. Clin. Oncol. 10 (5):839-864 (1992); cited from earlier work.
For data set [3] the following is noted: Preuss-Ueberschar et al., Drug Res. 34:1305-1313 (1984); cited from earlier work.
A further data set relates to melanoma cell. The note with it: Jing et al. (1992); cited from earlier work.

Turning to `CC(C)(C)c1cc(C(=O)Nc2ccc(C(=O)Nc3ccc(O)cc3)cc2)cc(C(C)(C)C)c1O` [I-A, N-4-[4-(hydroxyphenylaminocarbonyl)phenyl]-3,5-di-t-butyl-4-hydroxybenzamide], in the data set on cancer cells, the IC50 was 4 µM. In addition, in data set [1], the EC50 is more than 1 µM. Consider `CC(=O)Nc1ccc(OC(=O)c2ccc(NC(=O)c3cc(C(C)(C)C)c(O)c(C(C)(C)C)c3)cc2)cc1` [I-B, N-4-[4-(acetaminophenoxycarbonyl)phenyl]-3,5-di-t-butyl-4-hydroxybenzamide], for which, in the data set with cancer cells, the IC50 came to 11 µM. For the same compound, the EC50 in data set [1] was more than 10 µM.

Regarding `COc1c(C(C)(C)C)cc(C(=O)Nc2ccc(C(=O)Oc3ccc(NC(C)=O)cc3)cc2)cc1C(C)(C)C` [I-J, N-4-[4-(acetaminophenoxycarbonyl)phenyl]-3,5-di-t-butyl-4-methoxybenzamide], the IC50 in the data set with cancer cells turned out to be 0.92 µM. The EC50 in data set [1] turned out to be 1.2 µM. The matching figures for `COc1c(C(C)(C)C)cc(C(=O)C=Cc2ccc(C(=O)Oc3ccc(NC(C)=O)cc3)cc2)cc1C(C)(C)C` [I-N, 1-(3,5-di-t-butyl-4-methoxyphenyl)-3-[4-(4-acetaminophenoxycarbonyl)-phenyl]-2-propen-1-one]: 2 µM and more than 1 µM. Take `CC(=O)Nc1ccc(OC(=O)c2ccc(OC(=O)c3cc(C(C)(C)C)c(O)c(C(C)(C)C)c3)cc2)cc1` [I-Q, 4'-[(4-acetamino)phenoxycarbonylphenyl] 4-hydroxy-3,5-di-t-butyl-benzoate]: the IC50 in the data set with cancer cells was determined as 6 µM. In addition, the EC50 in data set [1] worked out at 8 µM. On the same counts, the results for `CCOC(=O)c1ccc(NC(=O)c2ccc(OC(=O)c3cc(C(C)(C)C)c(O)c(C(C)(C)C)c3)cc2)cc1` [I-R, 4-(4-ethoxycarbonyl-phenylaminocarbonyl)phenyl 3,5-di-t-butyl-4-hydroxybenzoate] are more than 10 µM and more than 10 µM. On the same counts, the results for `CC(C)(C)c1cc(C(=O)Oc2ccc(C(=O)Nc3ccc(C(=O)O)cc3)cc2)cc(C(C)(C)C)c1O` [I-S, 4-(4-carboxy-phenylaminocarbonyl)phenyl 3,5-di-t-butyl-4-hydroxybenzoate] are 1.6 µM and more than 10 µM. Regarding `CC1=C(/C=C/C(C)=C/C=C/C(C)=C/C(=O)O)C(C)(C)CCC1` [all-trans-retinoic acid (RA), all-trans-retinoic acid], the induces cell differentiation result in data set [2] is “induces cell differentiation”.

In the case of `O=c1ccc2ccccc2o1` [coumarin], in data set [3], the teratogenicity result was “not teratogenic”.

Regarding `O=c1c(-c2ccc(O)cc2)coc2cc(O)ccc12` [diadzein], the “inhibition of melanoma cell growth” value in the data set on melanoma cell was “inhibits melanoma cell growth”.
